SMILES strings stand for the structures.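 Five concentrations, 48 hours, 96-well plates. TGI: concentration producing complete growth inhibition.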

We go through 17 compounds from PubChem BioAssay (NCI).

Among the test systems are 786-0 renal; A498 renal; ACHN renal; BT-549 breast; CAKI-1 renal; HOP-92 NSCLC; MDA-MB-435; MOLT-4 leukemia; NCI-H522 lung; NCI/ADR-RES ovarian; SF-295 CNS.
Holding throughout (assay): growth of human tumour cells (NCI), 48 h

As to `S=c1oc(CCCCCCCCc2nn(CNc3ccc(Cl)cc3)c(=S)o2)nn1CNc1ccc(Cl)cc1`, the TGI with 786-0 renal, in the test with A498 renal, with ACHN renal, with BT-549 breast, with CAKI-1 renal and in the test with HOP-92 NSCLC was greater than 100 µM throughout. Besides, the TGI with MDA-MB-435, in the test on MOLT-4 leukemia, in the test on NCI-H522 lung, in the test on NCI/ADR-RES ovarian and in the test on SF-295 CNS was greater than 100 µM in each case.
As to `Cc1cc2nc3c(N)nn(CCN(C)C)c3nc2cc1C`, the TGI is greater than 100 µM with 786-0 renal; greater than 100 µM with A498 renal; 95.5 µM in the test on ACHN renal; greater than 100 µM with BT-549 breast; greater than 100 µM with CAKI-1 renal; greater than 100 µM in the test with HOP-92 NSCLC. In addition, the TGI with MDA-MB-435, in the test on MOLT-4 leukemia, in the test on NCI-H522 lung, in the test on NCI/ADR-RES ovarian and in the test with SF-295 CNS was greater than 100 µM each time.
`C/C=C\C(CC(=O)NCCc1c[nH]c2ccccc12)CC(=O)OC` (configuration not stated): the TGI in the test on 786-0 renal, in the test on A498 renal, in the test on ACHN renal, with BT-549 breast, in the test on CAKI-1 renal and in the test with HOP-92 NSCLC was greater than 100 µM in each case. The TGI in the test on MDA-MB-435, in the test on MOLT-4 leukemia, with NCI-H522 lung, with NCI/ADR-RES ovarian and with SF-295 CNS was greater than 100 µM in each case.
On to `CCOc1ccccc1N=NC1C(=O)N(C(=O)CC(=O)Nc2ccccc2OC)N=C1C` (configuration not stated), for which the TGI with 786-0 renal was greater than 100 µM; with A498 renal, greater than 100 µM; with ACHN renal, greater than 100 µM; in the test with BT-549 breast, greater than 100 µM; in the test with CAKI-1 renal, greater than 100 µM; with HOP-92 NSCLC, 56.8 µM. Also, the TGI in the test on MDA-MB-435 is greater than 100 µM; with MOLT-4 leukemia, greater than 100 µM; in the test with NCI-H522 lung, greater than 100 µM; in the test with NCI/ADR-RES ovarian it was greater than 100 µM; in the test on SF-295 CNS, 55.6 µM.
On to `CC(=O)Nc1nc(C)c(S(=O)(=O)NC(=O)N2c3ccccc3CCc3ccccc32)s1`, for which the TGI in the test with 786-0 renal, in the test with A498 renal, in the test on ACHN renal, with BT-549 breast, in the test on CAKI-1 renal and in the test with HOP-92 NSCLC was greater than 100 µM throughout. Also, the TGI with MDA-MB-435, with MOLT-4 leukemia, in the test on NCI-H522 lung, with NCI/ADR-RES ovarian and in the test with SF-295 CNS was greater than 100 µM throughout.
Turning to `O=C(O)Cn1ncn(NC(=O)Cc2ccccc2)c1=S`, the TGI in the test on 786-0 renal, with A498 renal, with ACHN renal, in the test with BT-549 breast, with CAKI-1 renal and in the test with HOP-92 NSCLC was greater than 10 µM in each case. Moreover, the TGI in the test with MDA-MB-435, in the test with MOLT-4 leukemia, in the test on NCI-H522 lung, in the test on NCI/ADR-RES ovarian and in the test with SF-295 CNS was greater than 10 µM throughout.
For the compound `CCOC(=O)c1nc2ccccc2nc1Nc1ccc(F)cc1`, the TGI in the test with 786-0 renal is greater than 72.2 µM; with A498 renal, 58.5 µM; in the test with ACHN renal it was greater than 93.6 µM; with BT-549 breast it was 73.2 µM; in the test with CAKI-1 renal, greater than 100 µM; in the test with HOP-92 NSCLC, 43.9 µM. Moreover, the TGI in the test on MDA-MB-435 was greater than 100 µM; with MOLT-4 leukemia, greater than 100 µM; in the test on NCI-H522 lung, greater than 100 µM; in the test with NCI/ADR-RES ovarian, greater than 100 µM; in the test on SF-295 CNS it was 28.9 µM.
As for `COC(=O)NC(Nc1ccc(C)cc1)(C(F)(F)F)C(F)(F)F`, the TGI with 786-0 renal, in the test on A498 renal, with ACHN renal, with BT-549 breast, in the test with CAKI-1 renal and in the test on HOP-92 NSCLC was greater than 100 µM in each case. Moreover, the TGI with MDA-MB-435, with MOLT-4 leukemia, in the test on NCI-H522 lung, in the test on NCI/ADR-RES ovarian and with SF-295 CNS was greater than 100 µM in each case.
In the case of `Oc1ccc(O)c(Sc2nnc(CCCCCCCCc3nnc(Sc4cc(O)ccc4O)o3)o2)c1`, the TGI with 786-0 renal is 35.7 µM; in the test with A498 renal it was greater than 100 µM; with ACHN renal, 85.9 µM; in the test with BT-549 breast, greater than 100 µM; in the test with CAKI-1 renal, 69.7 µM; in the test with HOP-92 NSCLC, 65.7 µM. For the same compound, the TGI was 35.8 µM with MDA-MB-435; greater than 100 µM in the test with MOLT-4 leukemia; 55 µM with NCI-H522 lung; greater than 100 µM with NCI/ADR-RES ovarian; greater than 100 µM in the test with SF-295 CNS.
Turning to `O=C(c1ccccc1)c1ccc2nc(-c3c(Cl)c(Cl)c(Cl)c(Cl)c3C(=O)Nc3ccco3)[nH]c2c1`, the TGI in the test on 786-0 renal was greater than 100 µM; in the test with A498 renal, 92.2 µM; with ACHN renal, greater than 100 µM; in the test on BT-549 breast, 74 µM; with CAKI-1 renal, greater than 100 µM; in the test with HOP-92 NSCLC it was greater than 100 µM. The TGI in the test with MDA-MB-435 was 42.7 µM; in the test with MOLT-4 leukemia it was greater than 100 µM; in the test on NCI-H522 lung it was 81.4 µM; in the test on NCI/ADR-RES ovarian, 62.4 µM; in the test with SF-295 CNS, greater than 100 µM.
Regarding `COc1ccc(Nc2nc(NNC(=O)Cc3ccccc3)nc(NNC(=O)c3ccncc3)n2)cc1`, the TGI with 786-0 renal, in the test on A498 renal, in the test with ACHN renal, in the test with BT-549 breast, in the test on CAKI-1 renal and with HOP-92 NSCLC was greater than 10 µM throughout. Moreover, the TGI in the test with MDA-MB-435, in the test with MOLT-4 leukemia, in the test with NCI-H522 lung, with NCI/ADR-RES ovarian and with SF-295 CNS was greater than 10 µM throughout.
`COCCN(C(=O)c1ccccc1)C1CCC(=O)c2[nH]c3ccccc3c21` (configuration not stated): the TGI with 786-0 renal was determined as 11.9 µM; with A498 renal it was 33.4 µM; with ACHN renal it was 30.4 µM; with BT-549 breast it was 8.22 µM; in the test on CAKI-1 renal it was 10.9 µM; in the test on HOP-92 NSCLC it was 25 µM. Further, the TGI with MDA-MB-435 is 17.5 µM; in the test on MOLT-4 leukemia, 26.9 µM; in the test on NCI-H522 lung, 6.93 µM; in the test on NCI/ADR-RES ovarian it was 53.6 µM; in the test on SF-295 CNS it was greater than 56.8 µM.
For `CC(=O)c1cc(S(=O)(=O)c2ccc(O)c(C(C)=O)c2)ccc1O`, the TGI in the test on 786-0 renal, with A498 renal, in the test with ACHN renal, in the test with BT-549 breast, in the test with CAKI-1 renal and in the test with HOP-92 NSCLC was greater than 100 µM in each case. Besides, the TGI in the test on MDA-MB-435, in the test on MOLT-4 leukemia, in the test on NCI-H522 lung, with NCI/ADR-RES ovarian and with SF-295 CNS was greater than 100 µM each time.
Take `CCC(=O)Nc1ccc(N2C(=O)/C(=C/c3ccc(O)c(OC)c3)N=C2c2ccccc2)cc1`: the TGI with 786-0 renal was 95.6 µM; with A498 renal, 36.6 µM; with ACHN renal, 89.9 µM; in the test with BT-549 breast it was 44.9 µM; in the test with CAKI-1 renal it was greater than 100 µM; with HOP-92 NSCLC, greater than 100 µM. In addition, the TGI in the test on MDA-MB-435, in the test with MOLT-4 leukemia, with NCI-H522 lung, with NCI/ADR-RES ovarian and in the test on SF-295 CNS was greater than 100 µM in each case.
As to `Cc1ccc(C2(N3CCOCC3)OC(C)(C)c3cccc4cccc2c34)cc1` (configuration not stated), the TGI in the test on 786-0 renal amounted to 32.4 µM; in the test with A498 renal, 32.9 µM; with ACHN renal, 31.6 µM; in the test on BT-549 breast it was 33.6 µM; with CAKI-1 renal, 50.1 µM; with HOP-92 NSCLC it was 25.5 µM. Moreover, the TGI in the test on MDA-MB-435 was 32.6 µM; in the test on MOLT-4 leukemia, greater than 100 µM; in the test on NCI-H522 lung it was 30.8 µM; in the test with NCI/ADR-RES ovarian it was 31.2 µM; with SF-295 CNS, 33.6 µM.
On to `O=C1/C(=C(/Br)I)c2ccccc2-c2ccccc21`, for which the TGI in the test on 786-0 renal was 10.2 µM; in the test on A498 renal, 30.2 µM; in the test on ACHN renal, 19 µM; in the test on BT-549 breast, 19.1 µM; in the test on CAKI-1 renal, 16.9 µM; in the test on HOP-92 NSCLC, 8.07 µM. In addition, the TGI worked out at 22 µM in the test with MDA-MB-435; 6.27 µM in the test with MOLT-4 leukemia; 5.27 µM in the test on NCI-H522 lung; 30.4 µM with NCI/ADR-RES ovarian; 31.4 µM in the test on SF-295 CNS.
`O=P1(N(CCCl)CCCl)NCCCO1` (configuration not stated): the TGI in the test with 786-0 renal is greater than 250 µM; with A498 renal it was greater than 250 µM; in the test on ACHN renal, greater than 250 µM; in the test with BT-549 breast, greater than 250 µM; in the test with CAKI-1 renal, greater than 191 µM; with HOP-92 NSCLC, greater than 250 µM. For the same compound, the TGI with MDA-MB-435 is greater than 250 µM; in the test on MOLT-4 leukemia, greater than 250 µM; in the test with NCI-H522 lung it was greater than 250 µM; with NCI/ADR-RES ovarian, greater than 250 µM; in the test with SF-295 CNS it was greater than 246 µM.
